Experimental data as given in ChEMBL document CHEMBL4819062, “Novel iodinated quinazolinones bearing sulfonamide as new scaffold targeting radiation induced oxidative stress” (Bioorg Med Chem Lett, 2021).
Blank lines part the entries; values can stand above or below the compound they belong to.

Tests used:
[1] = biological target: T1, Nuclear factor erythroid 2-related factor 2 (Mus musculus) (UniProt Q60795); experiment: Activation of Nrf2 in mouse Hepa1c1c7 cells assessed as increase in NQO1 activity at 0.625 uM; format: cell-based; settings: filed as activator
T1 sequence (whole entry): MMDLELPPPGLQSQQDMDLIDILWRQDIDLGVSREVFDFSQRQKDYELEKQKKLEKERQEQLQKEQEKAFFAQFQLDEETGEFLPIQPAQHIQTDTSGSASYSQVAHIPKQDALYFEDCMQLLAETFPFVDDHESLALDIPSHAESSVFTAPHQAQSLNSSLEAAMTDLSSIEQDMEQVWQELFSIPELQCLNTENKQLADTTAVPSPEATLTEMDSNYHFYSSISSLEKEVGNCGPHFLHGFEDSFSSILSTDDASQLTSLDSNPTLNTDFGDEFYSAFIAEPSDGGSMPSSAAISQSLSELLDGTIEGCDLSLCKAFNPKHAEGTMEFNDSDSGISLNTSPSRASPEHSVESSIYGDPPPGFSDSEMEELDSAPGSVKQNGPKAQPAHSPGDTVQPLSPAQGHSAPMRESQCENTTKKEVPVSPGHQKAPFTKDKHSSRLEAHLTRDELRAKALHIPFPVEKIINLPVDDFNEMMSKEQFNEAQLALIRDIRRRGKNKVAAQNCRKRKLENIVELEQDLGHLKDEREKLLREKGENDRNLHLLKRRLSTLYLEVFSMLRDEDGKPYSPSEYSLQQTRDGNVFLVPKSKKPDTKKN

[2] = biological target: T1, Nuclear factor erythroid 2-related factor 2 (Mus musculus); experiment: Activation of Nrf2 in mouse Hepa1c1c7 cells assessed as increase in NQO1 activity at 1.25 uM; format: cell-based; settings: filed as activator
[3] = biological target: T1, Nuclear factor erythroid 2-related factor 2 (Mus musculus); experiment: Activation of Nrf2 in mouse Hepa1c1c7 cells assessed as increase in NQO1 activity at 0.313 uM; format: cell-based; settings: filed as activator
[4] = biological target: T1, Nuclear factor erythroid 2-related factor 2 (Mus musculus); experiment: Activation of Nrf2 in mouse Hepa1c1c7 cells assessed as increase in NQO1 activity at 2.5 uM; format: cell-based; settings: filed as activator
[5] = biological target: T1, Nuclear factor erythroid 2-related factor 2 (Mus musculus); experiment: Activation of Nrf2 in mouse Hepa1c1c7 cells assessed as increase in NQO1 activity at 10 uM; format: cell-based; settings: filed as activator
[6] = biological target: T1, Nuclear factor erythroid 2-related factor 2 (Mus musculus); experiment: Activation of Nrf2 in mouse Hepa1c1c7 cells assessed as increase in NQO1 activity at 40 uM; format: cell-based; settings: filed as activator
[7] = biological target: T1, Nuclear factor erythroid 2-related factor 2 (Mus musculus); experiment: Activation of Nrf2 in mouse Hepa1c1c7 cells assessed as increase in NQO1 activity at 20 uM; format: cell-based; settings: filed as activator
[8] = biological target: T1, Nuclear factor erythroid 2-related factor 2 (Mus musculus); experiment: Activation of Nrf2 in mouse Hepa1c1c7 cells assessed as increase in NQO1 activity at 5 uM; format: cell-based; settings: filed as activator
[9] = Antioxidant activity assessed as DPPH radical scavenging activity; format: functional
[10] = biological target: T1, Nuclear factor erythroid 2-related factor 2 (Mus musculus); experiment: Activation of Nrf2 in mouse Hepa1c1c7 cells assessed as increase in NQO1 activity at 0.2 uM; format: cell-based; settings: filed as activator
[11] = biological target: T1, Nuclear factor erythroid 2-related factor 2 (Mus musculus); experiment: Activation of Nrf2 in mouse Hepa1c1c7 cells assessed as increase in NQO1 activity at 0.5 uM; format: cell-based; settings: filed as activator
[12] = biological target: T1, Nuclear factor erythroid 2-related factor 2 (Mus musculus); experiment: Activation of Nrf2 in mouse Hepa1c1c7 cells assessed as increase in NQO1 activity at 3.75 uM; format: cell-based; settings: filed as activator
[13] = biological target: T1, Nuclear factor erythroid 2-related factor 2 (Mus musculus); experiment: Activation of Nrf2 in mouse Hepa1c1c7 cells assessed as increase in NQO1 activity at 7.5 uM; format: cell-based; settings: filed as activator
[14] = biological target: T1, Nuclear factor erythroid 2-related factor 2 (Mus musculus); experiment: Activation of Nrf2 in mouse Hepa1c1c7 cells assessed as increase in NQO1 activity at 1.9 uM; format: cell-based; settings: filed as activator
[15] = biological target: T1, Nuclear factor erythroid 2-related factor 2 (Mus musculus); experiment: Activation of Nrf2 in mouse Hepa1c1c7 cells assessed as increase in NQO1 activity at 0.9 uM; format: cell-based; settings: filed as activator
[16] = biological target: T1, Nuclear factor erythroid 2-related factor 2 (Mus musculus); experiment: Activation of Nrf2 in mouse Hepa1c1c7 cells assessed as increase in NQO1 activity at 15 uM; format: cell-based; settings: filed as activator
[17] = biological target: T1, Nuclear factor erythroid 2-related factor 2 (Mus musculus); experiment: Activation of Nrf2 in mouse Hepa1c1c7 cells assessed as increase in NQO1 activity at 3.125 uM; format: cell-based; settings: filed as activator
[18] = biological target: T1, Nuclear factor erythroid 2-related factor 2 (Mus musculus); experiment: Activation of Nrf2 in mouse Hepa1c1c7 cells assessed as increase in NQO1 activity at 25 uM; format: cell-based; settings: filed as activator
[19] = biological target: T1, Nuclear factor erythroid 2-related factor 2 (Mus musculus); experiment: Activation of Nrf2 in mouse Hepa1c1c7 cells assessed as increase in NQO1 activity at 0.8 uM; format: cell-based; settings: filed as activator
[20] = biological target: T1, Nuclear factor erythroid 2-related factor 2 (Mus musculus); experiment: Activation of Nrf2 in mouse Hepa1c1c7 cells assessed as increase in NQO1 activity at 50 uM; format: cell-based; settings: filed as activator
[21] = biological target: T1, Nuclear factor erythroid 2-related factor 2 (Mus musculus); experiment: Activation of Nrf2 in mouse Hepa1c1c7 cells assessed as increase in NQO1 activity at 0.4 uM; format: cell-based; settings: filed as activator
[22] = biological target: T1, Nuclear factor erythroid 2-related factor 2 (Mus musculus); experiment: Activation of Nrf2 in mouse Hepa1c1c7 cells assessed as increase in NQO1 activity at 1.6 uM; format: cell-based; settings: filed as activator
[23] = biological target: T1, Nuclear factor erythroid 2-related factor 2 (Mus musculus); experiment: Activation of Nrf2 in mouse Hepa1c1c7 cells assessed as increase in NQO1 activity at 12.5 uM; format: cell-based; settings: filed as activator
[24] = biological target: T1, Nuclear factor erythroid 2-related factor 2 (Mus musculus); experiment: Activation of Nrf2 in mouse Hepa1c1c7 cells assessed as increase in NQO1 activity at 6.25 uM; format: cell-based; settings: filed as activator

Activity [1]: 1.03 | Activity [2]: 1.05 | Activity [3]: 1.01 | Activity [4]: 1.07 | Activity [5]: 1.1 | Activity [6]: 1.3 | Activity [7]: 1.25 | Activity [8]: 1.08 | IC50 [9]: 59.8 µM
Structure (SMILES): NS(=O)(=O)c1ccc(-n2c(SCC(=O)Nc3cc(Cl)c(Cl)cc3Cl)nc3c(I)cc(I)cc3c2=O)cc1

Activity [10]: 1.05 | Activity [11]: 1.06 | Activity [12]: 1.13 | Activity [13]: 1.23 | Activity [14]: 1.12 | Activity [15]: 1.11 | Activity [16]: 1.8 | IC50 [9]: 98.9 µM
Structure (SMILES): NS(=O)(=O)c1ccc(-n2c(SCC(=O)Nc3ccccc3F)nc3c(I)cc(I)cc3c2=O)cc1

IC50 [9]: 57.1 µM
Structure (SMILES): NS(=O)(=O)c1ccc(-n2c(S)nc3c(I)cc(I)cc3c2=O)cc1

Activity [17]: 1.06 | Activity [18]: 1.65 | Activity [19]: 1 | Activity [20]: 1.89 | Activity [21]: 1.04 | Activity [22]: 1.02 | Activity [23]: 1.31 | IC50 [9]: 112 µM | Activity [24]: 1.15
Structure (SMILES): NS(=O)(=O)c1ccc(-n2c(SCC(=O)Nc3ccncc3)nc3c(I)cc(I)cc3c2=O)cc1
